In patent publication US20210261561A1, “BICYCLIC HETEROCYCLE DERIVATIVES HAVING SELECTIVE BACE1 INHIBITORY ACTIVITY” (SHIONOGI & CO., LTD., priority 2018, published 2021):

Tested on: Abeta 1-37, Abeta 1-38, Abeta 1-40 and Abeta 1-42 in cerebrospinal fluid (CSF)
Assay: Pharmacology in the beagle dog, beta-amyloid profile in CSF (Test Example 18-2)
Format: in vivo
Conditions: for % Decrease in Abeta 1-42 at 24 h^(a) or 25 h^(b) post dosing compared to own baseline: 24 h or 25 h
Protocol: Test compounds were tested to evaluate the effect on the beta-amyloid profile in cerebrospinal fluid (CSF) of dogs after a single dose, in combination with pharmacokinetic (PK) follow up and limited safety evaluation.
For each of compound II-6 or II-10, four beagle dogs (2 males, 2 females) were dosed with vehicle (1 mL/kg of an aqueous solution of 20% cyclodextrin) and 12 beagle dogs (2 males and 2 females per dosage group) were dosed with test compounds as follows:
In the case of compounds II-2, II-3 and II-18, two beagle dogs (1 male, 1 female) were dosed with vehicle (1 mL/kg of an aqueous solution of 20% cyclodextrin) and 4 beagle dogs (2 males and 2 females) were dosed with test compound (II-2, II-3, or II-18) at the doses indicated in the following Table in an aqueous 20% cyclodextrin solution with a concentration in mg/mL identical to the dose given in mg/kg) on an empty stomach.
CSF was taken in conscious animals directly from the lateral ventricle via a cannula which was screwed in the skull and covered with subcutaneous tissue and skin, before and at 4, 8, 25 and 49 hours after dosing. Eight hours after dosing the animals got access to their regular meal for 30 minutes. Blood was taken for PK follow up (0.5, 1, 2, 4, 8, 25 and 49 hours) and serum samples for biochemistry were taken before and at 8 and 25 h after dosing. The CSF samples were used for measurement of Abeta 1-37, Abeta 1-38, Abeta 1-40 and Abeta 1-42.

[2H]C1([2H])Oc2cnc(C(=O)Nc3ccc(F)c([C@]4(CF)CC[C@@](C)(S(C)(=O)=O)C(N)=N4)c3)cc2OC1([2H])[2H] [II-2]
% Decrease in Abeta 1-42 at 8 h post dosing compared to own baseline (single dose 0.63 mg/kg): 33%

[2H]C1([2H])Oc2cnc(C(=O)Nc3ccc(F)c([C@]4(CF)CC[C@@](C)(S(C)(=O)=O)C(N)=N4)c3)cc2OC1([2H])[2H] [II-3]
% Decrease in Abeta 1-42 at 8 h post dosing compared to own baseline (single dose 5 mg/kg): 61%

C[C@@]1(S(C)(=O)=O)CC[C@@](CF)(c2cc(NC(=O)c3cc4c(cn3)OC(F)(F)O4)ccc2F)N=C1N [II-6]
% Decrease in Abeta 1-42 at 8 h post dosing compared to own baseline (single dose 0.16 mg/kg): 51% | % Decrease in Abeta 1-42 at 24 h^(a) or 25 h^(b) post dosing compared to own baseline (single dose 0.16 mg/kg): 31% | % Decrease in Abeta 1-42 at 8 h post dosing compared to own baseline (single dose 0.31 mg/kg): 69% | % Decrease in Abeta 1-42 at 49 h post dosing compared to own baseline (single dose 0.31 mg/kg): 22% | % Decrease in Abeta 1-42 at 8 h post dosing compared to own baseline (single dose 0.63 mg/kg): 68% | % Decrease in Abeta 1-42 at 24 h^(a) or 25 h^(b) post dosing compared to own baseline (single dose 0.63 mg/kg): 62%

C[C@@]1(S(C)(=O)=O)CC[C@@](CF)(c2cc(NC(=O)c3cc4c(cn3)OC(F)(F)CO4)ccc2F)N=C1N [II-10]
% Decrease in Abeta 1-42 at 8 h post dosing compared to own baseline (single dose 0.16 mg/kg): 37% | % Decrease in Abeta 1-42 at 8 h post dosing compared to own baseline (single dose 0.63 mg/kg): 68% | % Decrease in Abeta 1-42 at 24 h^(a) or 25 h^(b) post dosing compared to own baseline (single dose 0.63 mg/kg): 21% | % Decrease in Abeta 1-42 at 8 h post dosing compared to own baseline (single dose 1.25 mg/kg): 73% | % Decrease in Abeta 1-42 at 24 h^(a) or 25 h^(b) post dosing compared to own baseline (single dose 1.25 mg/kg): 27% | % Decrease in Abeta 1-42 at 8 h post dosing compared to own baseline (single dose 2.5 mg/kg): 76% | % Decrease in Abeta 1-42 at 24 h^(a) or 25 h^(b) post dosing compared to own baseline (single dose 2.5 mg/kg): 28%

CCS(=O)(=O)[C@]1(C)CC[C@@](CF)(c2cc(NC(=O)c3cc4c(cn3)OC(F)(F)O4)ccc2F)N=C1N [II-20]
% Decrease in Abeta 1-42 at 8 h post dosing compared to own baseline (single dose 0.16 mg/kg): 51% | % Decrease in Abeta 1-42 at 24 h^(a) or 25 h^(b) post dosing compared to own baseline (single dose 0.16 mg/kg): 30% | % Decrease in Abeta 1-42 at 49 h post dosing compared to own baseline (single dose 0.16 mg/kg): 25% | % Decrease in Abeta 1-42 at 8 h post dosing compared to own baseline (single dose 0.63 mg/kg): 72% | % Decrease in Abeta 1-42 at 24 h^(a) or 25 h^(b) post dosing compared to own baseline (single dose 0.63 mg/kg): 70% | % Decrease in Abeta 1-42 at 49 h post dosing compared to own baseline (single dose 0.63 mg/kg): 52% | % Decrease in Abeta 1-42 at 8 h post dosing compared to own baseline (single dose 1 mg/kg): 73% | % Decrease in Abeta 1-42 at 24 h^(a) or 25 h^(b) post dosing compared to own baseline (single dose 1 mg/kg): 76% | % Decrease in Abeta 1-42 at 49 h post dosing compared to own baseline (single dose 1 mg/kg): 58% | % Decrease in Abeta 1-42 at 8 h post dosing compared to own baseline (single dose 3.75 mg/kg): 86% | % Decrease in Abeta 1-42 at 24 h^(a) or 25 h^(b) post dosing compared to own baseline (single dose 3.75 mg/kg): 91% | % Decrease in Abeta 1-42 at 49 h post dosing compared to own baseline (single dose 3.75 mg/kg): 85%
